ChEMBL document CHEMBL1201862, “PubChem BioAssay data set” (2004)
Active and inactive are the calls of the source.

How the values were obtained:
[1] = target: T1, Nuclear receptor subfamily 0 group B member 1 (Homo sapiens, UniProt P51843); assay: Luminescence-based cell-based high throughput dose response assay for inhibitors of the orphan nuclear receptor subfamily 0, group B, member 1 (DAX1; NR0B1). [Related pubchem assays (depositor defined):AID504766, AID504790]; assay type: functional
T1 sequence (P51843 whole entry): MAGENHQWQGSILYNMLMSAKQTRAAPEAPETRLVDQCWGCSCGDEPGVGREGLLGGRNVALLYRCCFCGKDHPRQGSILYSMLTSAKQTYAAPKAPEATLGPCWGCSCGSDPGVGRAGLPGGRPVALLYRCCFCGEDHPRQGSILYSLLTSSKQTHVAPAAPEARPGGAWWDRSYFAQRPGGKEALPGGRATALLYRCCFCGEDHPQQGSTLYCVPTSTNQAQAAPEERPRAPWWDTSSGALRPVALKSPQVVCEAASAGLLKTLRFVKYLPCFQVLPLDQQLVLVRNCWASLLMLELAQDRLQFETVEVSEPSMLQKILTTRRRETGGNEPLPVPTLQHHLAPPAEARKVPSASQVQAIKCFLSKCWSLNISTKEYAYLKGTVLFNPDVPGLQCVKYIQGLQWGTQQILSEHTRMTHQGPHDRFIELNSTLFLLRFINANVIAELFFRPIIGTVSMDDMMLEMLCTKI

[2] = test system: HEK293; assay: cells; assay type: functional, cell-based; details: Homo sapiens
[3] = Luminescence Cell-Based Dose Confirmation HTS to Identify Activators of 5'UTR Stem-Loop Driven Alpha-Synuclein mRNA Translation in H4 Neuroglioblastoma Cells. [Related pubchem assays: 1829 (Project Summary), 1814 (Primary HTS)]; assay type: functional
[4] = test system: H4; assay: Luminescence Cell-Based Dose Response HTS to Identify Activators of 5'UTR Stem-Loop Driven Prion Protein mRNA Translation in H4 Neuroglioblastoma Cells. [Related pubchem assays: 1829 (Project Summary), 1814 (Primary HTS)]; assay type: functional; details: Homo sapiens
[5] = Luminescence Cell-Based Dose Response HTS to Identify Activators of Luciferase Translation or Activity in H4 […] Cells. [Related pubchem assays: 1829 (Project Summary), 1814 (Primary HTS)]; assay type: functional
[6] = cells; assay type: functional, cell-based
[7] = cells; assay type: functional, cell-based; remark: listed apart in the source
[8] = target: T2, Exodeoxyribonuclease V (Escherichia coli (strain K12), UniProt P04993+P07648+P08394); assay: E. coli RecBCD inhibitors, dose response, counter-screen for AddAB inhibitor project, absorbance, V66 E. coli, mutant T4 phage (AID 492957); assay type: functional, cell-based, Escherichia coli str. K-12 substr. MG1655
T2 sequence (P04993 whole entry): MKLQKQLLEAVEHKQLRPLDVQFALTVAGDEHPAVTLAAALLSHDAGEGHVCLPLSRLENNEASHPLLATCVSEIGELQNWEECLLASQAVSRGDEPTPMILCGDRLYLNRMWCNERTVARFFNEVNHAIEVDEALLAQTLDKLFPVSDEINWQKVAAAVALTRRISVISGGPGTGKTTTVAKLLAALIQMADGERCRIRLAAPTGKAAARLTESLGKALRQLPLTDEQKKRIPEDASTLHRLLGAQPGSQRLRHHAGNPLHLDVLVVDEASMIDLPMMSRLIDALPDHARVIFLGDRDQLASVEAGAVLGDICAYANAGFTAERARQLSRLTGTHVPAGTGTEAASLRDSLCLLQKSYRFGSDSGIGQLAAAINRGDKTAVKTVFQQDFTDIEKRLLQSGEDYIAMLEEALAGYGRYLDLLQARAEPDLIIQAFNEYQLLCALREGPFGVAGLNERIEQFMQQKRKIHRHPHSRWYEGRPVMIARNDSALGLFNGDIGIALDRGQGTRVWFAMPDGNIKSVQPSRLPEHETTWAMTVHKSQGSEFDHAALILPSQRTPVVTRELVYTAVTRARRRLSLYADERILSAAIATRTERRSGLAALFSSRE
T2 sequence (P07648 whole entry): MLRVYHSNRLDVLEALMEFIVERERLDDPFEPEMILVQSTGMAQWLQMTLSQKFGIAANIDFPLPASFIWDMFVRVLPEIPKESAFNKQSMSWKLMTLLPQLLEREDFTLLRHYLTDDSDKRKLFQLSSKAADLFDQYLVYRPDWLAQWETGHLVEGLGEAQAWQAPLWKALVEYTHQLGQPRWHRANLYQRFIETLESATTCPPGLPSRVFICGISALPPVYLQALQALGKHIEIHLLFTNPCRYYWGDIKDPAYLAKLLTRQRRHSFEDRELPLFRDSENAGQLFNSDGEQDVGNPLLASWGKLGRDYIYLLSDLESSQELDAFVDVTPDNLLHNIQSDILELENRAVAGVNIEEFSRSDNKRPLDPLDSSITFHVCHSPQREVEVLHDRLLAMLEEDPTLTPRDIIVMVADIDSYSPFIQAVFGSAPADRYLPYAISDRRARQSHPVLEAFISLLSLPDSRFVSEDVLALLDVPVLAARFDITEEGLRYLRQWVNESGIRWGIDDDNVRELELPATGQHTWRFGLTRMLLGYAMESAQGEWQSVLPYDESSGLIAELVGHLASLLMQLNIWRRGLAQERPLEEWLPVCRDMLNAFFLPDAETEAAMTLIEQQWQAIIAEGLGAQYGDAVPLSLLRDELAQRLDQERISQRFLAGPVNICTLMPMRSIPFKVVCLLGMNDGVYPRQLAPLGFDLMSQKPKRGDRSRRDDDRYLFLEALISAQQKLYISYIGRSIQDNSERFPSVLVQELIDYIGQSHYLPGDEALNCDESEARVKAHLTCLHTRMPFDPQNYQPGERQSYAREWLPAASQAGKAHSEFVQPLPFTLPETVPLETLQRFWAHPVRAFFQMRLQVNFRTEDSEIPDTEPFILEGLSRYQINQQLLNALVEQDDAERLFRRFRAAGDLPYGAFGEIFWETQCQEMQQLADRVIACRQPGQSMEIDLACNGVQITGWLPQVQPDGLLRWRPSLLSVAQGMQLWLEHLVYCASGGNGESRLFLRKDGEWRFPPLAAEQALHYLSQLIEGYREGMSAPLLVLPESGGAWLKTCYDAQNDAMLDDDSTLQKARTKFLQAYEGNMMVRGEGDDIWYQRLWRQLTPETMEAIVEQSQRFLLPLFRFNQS
T2 sequence (P08394 whole entry): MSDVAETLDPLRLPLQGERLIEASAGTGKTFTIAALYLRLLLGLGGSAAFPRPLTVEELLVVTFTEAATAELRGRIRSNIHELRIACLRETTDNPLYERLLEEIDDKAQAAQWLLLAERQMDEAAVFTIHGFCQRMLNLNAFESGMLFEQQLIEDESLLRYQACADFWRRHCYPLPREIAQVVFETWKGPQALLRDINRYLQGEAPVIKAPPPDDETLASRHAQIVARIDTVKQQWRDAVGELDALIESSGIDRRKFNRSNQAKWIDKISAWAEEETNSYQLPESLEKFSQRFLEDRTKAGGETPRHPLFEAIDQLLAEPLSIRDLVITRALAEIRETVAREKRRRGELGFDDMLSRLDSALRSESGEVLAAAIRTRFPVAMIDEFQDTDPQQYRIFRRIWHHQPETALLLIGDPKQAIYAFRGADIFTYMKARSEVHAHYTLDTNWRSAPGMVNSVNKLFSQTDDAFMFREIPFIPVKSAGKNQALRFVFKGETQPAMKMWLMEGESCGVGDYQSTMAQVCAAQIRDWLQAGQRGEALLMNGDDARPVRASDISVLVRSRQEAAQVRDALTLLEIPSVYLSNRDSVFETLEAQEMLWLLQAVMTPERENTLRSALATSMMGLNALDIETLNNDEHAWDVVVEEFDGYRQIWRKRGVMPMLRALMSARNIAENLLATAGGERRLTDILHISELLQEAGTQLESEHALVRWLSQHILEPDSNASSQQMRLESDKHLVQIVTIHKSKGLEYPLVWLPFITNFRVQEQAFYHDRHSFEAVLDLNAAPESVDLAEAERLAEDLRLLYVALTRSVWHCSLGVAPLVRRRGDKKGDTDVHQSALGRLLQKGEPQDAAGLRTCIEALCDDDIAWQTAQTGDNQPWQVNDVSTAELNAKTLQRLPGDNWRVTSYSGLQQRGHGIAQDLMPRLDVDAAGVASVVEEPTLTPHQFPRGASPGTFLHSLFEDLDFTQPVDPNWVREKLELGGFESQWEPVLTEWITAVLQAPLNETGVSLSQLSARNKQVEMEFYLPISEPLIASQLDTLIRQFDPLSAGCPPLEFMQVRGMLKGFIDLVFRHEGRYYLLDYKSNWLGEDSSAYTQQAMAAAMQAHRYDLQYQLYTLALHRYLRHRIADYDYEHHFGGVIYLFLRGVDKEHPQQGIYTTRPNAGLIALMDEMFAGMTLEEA

[9] = HepG2 cell cytotoxicity, dose response, cytotoxicity control for Shn3 inhibitor project, CellTiter-Glo, cherry-picked (AID 624134); assay type: functional, cell-based
[10] = test system: HEK293; assay: cytotoxicity in HEK293T NF-kB-Luc cells, SAR follow-up, cytotoxicity control for NF-kB activator project, cell-based, resazurin fluorescence (AID 493251); assay type: functional; details: Homo sapiens
[11] = test system: Jurkat; assay: SAR Analysis of small molecule inhibitors of T-cell specific antigen receptor-induced NF-kB activation in a Jurkat cell line using a luminescence assay - Set 2. [Related pubchem assays (depositor defined):AID435003, AID435012, AID465]; assay type: functional, cell-based; details: Homo sapiens
[12] = Counterscreen for AddAB inhibitors: absorbance-based bacterial cell-based high throughput dose response assay for inhibitors of bacterial viability. [Related pubchem assays (depositor defined):AID435030, AID449728, AID449731, AID488942, AID488955, AID488956]; assay type: functional
[13] = test system: HEK293; assay: SAR Analysis of small molecule inhibitors of T-cell specific antigen receptor-induced NF-kB activation in a HEK-293T cell line using a luminescence assay - Set 2. [Related pubchem assays (depositor defined):AID435003, AID435012, AID489026]; assay type: functional, cell-based; details: Homo sapiens
[14] = control 3'UTR Renilla luciferase suppression, dose response, counter-screen for Shn3 inhibitor project, cell-based, Clone20-Shn3RL, cherry-picked (AID 624133); assay type: functional
[15] = Shn3 3'UTR reporter inhibitors, dose response, cell-based, Clone20 osteoblasts, firefly luciferase, cherry-picked (AID 624132); assay type: functional;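 further: firefly luciferase luminescence from reporter carrying the Shn3 3'UTR in osteoblasts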
[16] = target: T3, Oxysterols receptor LXR-beta (Homo sapiens, UniProt P55055); assay type: functional, cell-based;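 further: agonist activity at LXR measured by a cell-based luminescence readout across a dose range, run as a counterscreen for daf-12 agonists; HEK293 cells with Gal4-LXR fusion and GAL4-driven luciferase reporter; potency for activation of Gal4-LXR reporter so compounds are agonists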
T3 sequence (P55055 whole entry): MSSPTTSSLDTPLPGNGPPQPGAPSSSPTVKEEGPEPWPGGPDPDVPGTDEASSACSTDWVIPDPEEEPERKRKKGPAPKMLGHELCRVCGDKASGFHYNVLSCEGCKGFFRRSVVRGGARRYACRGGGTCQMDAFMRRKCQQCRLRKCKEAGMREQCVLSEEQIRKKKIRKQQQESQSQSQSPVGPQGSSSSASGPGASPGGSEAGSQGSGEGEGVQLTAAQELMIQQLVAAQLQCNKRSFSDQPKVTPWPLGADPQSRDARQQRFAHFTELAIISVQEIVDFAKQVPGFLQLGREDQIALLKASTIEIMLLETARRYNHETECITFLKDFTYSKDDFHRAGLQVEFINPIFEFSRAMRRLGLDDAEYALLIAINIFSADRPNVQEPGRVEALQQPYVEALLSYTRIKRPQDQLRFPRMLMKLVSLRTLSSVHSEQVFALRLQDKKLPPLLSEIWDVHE

Structure (SMILES) | IC50 [1] | IC50 [2] | IC50 [10] | IC50 [11] | IC50 [13] | other results
Cc1cc2nc(CSc3ccc(Cl)cc3)cc(O)n2n1 | > 67.6 µM (inactive) | > 67.6 µM (inactive) |  |  |  | 
O=C(Nc1ncccc1O)c1ccc(S(=O)(=O)Nc2ccccc2)cc1 | > 67.6 µM (inactive) | > 0.00338 µM (active) |  |  |  | EC50 [3]: 12.2 µM (active); EC50 [4]: 22.9 µM (active); EC50 [5]: 19.9 µM (active); EC50 [6]: > 350 µM (not active); EC50 [7]: 23.3 µM (active)
O=C(Nc1ccc2oc(-c3ccncc3)nc2c1)c1ccc([N+](=O)[O-])o1 |  |  | > 80 µM (inactive) | 55.5 µM (inactive) | 41.5 µM (inactive) | IC50 [8]: > 119 µM (inactive); AC50 [9]: > 70 µM (inactive); IC50 [12]: > 119 µM (inactive); AC50 [14]: 20.7 µM (active); AC50 [15]: 18.6 µM (active)
Cc1cc(NC(=O)c2ccc([N+](=O)[O-])o2)cc(-c2nc3ccccc3o2)c1O |  |  | > 80 µM (inactive) | 3.42 µM (active) | > 80 µM (inactive) | 
Oc1[nH]c2ccccc2c1/C=N/c1ccccc1 | > 67.5 µM (inactive) | > 67.5 µM (inactive) |  |  |  | EC50 [16]: > 67.5 µM (inactive)
